The test system of series [1] is HeLa cervical carcinoma cells. As to the kind of experiment: Cellular cytotoxicity assay (Alamar Blue), HeLa. Conditions: Homo sapiens, 72 h, printed only as range over the group of listed compounds. The series is classed as cell-based. As for the experimental part:
The anti-proliferative activity of the histone deacetylase inhibitory compounds as described herein, was evaluated using the following cell lines: HeLa and HeLa-KB (cervical carcinoma), H460 (non small cell lung cancer), A549 (non-small cell lung cancer), MCF7 (breast carcinoma), MCF10A (normal, non tumorigenic breast epithelial), MDA-MB468 (breast carcinoma), MDA-MB435 (breast carcinoma), MDA-MB231 (breast carcinoma), SKBR-3 (breast carcinoma), SKOV-3 (ovarial carcinoma), A-2780 (ovarial carcinoma), RKO (colon carcinoma), HCT-15 (colon carcinoma), HCT-116 (colon carcinoma), PC3 (prostate carcinoma), BPH1 (benign prostate hyperplasia), AsPC1 (pancreatic carcinoma), Cal27 (tongue carcinoma), A-431 (vulva carcinoma), Hec1A (endometrial carcinoma), Saos-2 (osteosarcoma), U87MG (glioblastoma), WM266-4 (melanoma), K562 (chronic myeloid carcinoma), EOL1 (acute hypereosinophilic myeloid leukemia), CCRF-CEM and CCRF-CEM VCR1000 (acute lymphoblastic leukemia sensitive and resistant towards Vincristine). For quantification of cellular proliferation/living cells the Alamar Blue (Resazurin) cell viability assay was applied (O'Brien et al. Eur J Biochem 267, 5421-5426, 2000). […] After 4 hours incubation at 37° C. the fluorescence was measured at an extinction of 544 nm and an emission of 590 nm. […] Viabilities were expressed as % values. […]
In general terms: The colour change of resazurin is a common sign of viable cells or microbes.

The test system of another series is A549 cell line. The series is described as follows: Combination experiment with Trail. Type of series: cell-based. Conditions: example at about its IC50 with Trail, 4 h pretreatment, 72 h total. Here is the method: A549 non-small cell lung cancer, MDA-MB468 breast cancer and […] colorectal cancer cell lines were pretreated with the examples for 4 h before adding the chemotherapeutic agents or Trail and further incubation for 72 h total. The IC50 values of these combinations were determined from concentration-effect curves and compared to IC50 values of cell treated with the anti-cancer agent only.

Series [2] deals with RKO arrested (p21waf1 expressed) colon carcinoma cells. The series is described as follows: Cell-cycle dependent cytotoxicity, RKO exop21 system, arrested. Type of series: cell-based. Conditions: 72 h, p21waf1 induced, given only as range over the listed compounds. Here is the method: (§1) For determination of cell-cycle dependent cytotoxicity, the RKO exop21 cell system was applied (Schmidt et al. Oncogene 19: 2423-2429, 2000). Briefly, RKO cells with/without p21^waf1 expression (2×10^4 cells/well induced, 6×10^3 cells/well not induced) were treated with the examples for 72 h and metabolic activity quantified as described before. The expression of p21^waf1 was induced by treatment with Pronasterone A, causing a complete proliferation arrest of RKO cells in the G1 and G2 phases of the cell division cycle.

Series [3] concerns RKO proliferating colon carcinoma cells. As to the kind of experiment: Cell-cycle dependent cytotoxicity, RKO exop21 system, proliferating. Type of series: cell-based. Conditions: 72 h, given only as range over the listed compounds. Here is the method:
as §1

On to `Cc1ccc(S(=O)(=O)n2ccc(C=CC(=O)NO)c2)cc1` [Compound 1, (E)-N-Hydroxy-3-[1-(toluene-4-sulfonyl)-1-H-pyrrol-3-yl]-acrylamide], for which the IC50 (usually the concentration that gives 50% inhibition) in series [1] was 800 to 21600 nM.

For `O=C(/C=C/c1ccn(S(=O)(=O)c2ccc(-c3ccccc3)cc2)c1)NO` [Compound 3, (E)-3-[1-(Biphenyl-4-sulfonyl)-1H-pyrrol-3-yl]-N-hydroxy-acrylamide], in the series on A549 cell line, the “Effect of combination with Trail” value is “synergism is highly likely”. Besides, the IC50 in series [2] lay within 450 to 15000 nM; in series [3] it was 150 to 5100 nM.

Turning to `CN(CCc1cc2ccccc2[nH]1)Cc1ccc(S(=O)(=O)n2ccc(/C=C/C(=O)NO)c2)cc1` [Compound 9, (E)-N-Hydroxy-3-(1-[4-(([2-(1H-indol-2-yl)-ethyl]-methyl-amino)-methyl)-benzenesulfonyl]-1H-pyrrol-3-yl)-acrylamide], the “Effect of combination with Trail” value with A549 cell line is “synergism is highly likely”. Also, the IC50 in series [2] was in the range of 450 to 15000 nM; in series [3], 150 to 5100 nM.

Take `CN(C)Cc1ccc(S(=O)(=O)n2ccc(/C=C/C(=O)NO)c2)cc1` [Compound 10, (E)-3-[1-(4-Dimethylaminomethyl-benzenesulfonyl)-1H-pyrrol-3-yl]-N-hydroxy-acrylamide]: in the series with A549 cell line, the “Effect of combination with Trail” value is reported as “synergism is highly likely”. Besides, the IC50 lay in the range of 450 to 15000 nM in series [2] and 150 to 5100 nM in series [3].

`NCc1ccc(S(=O)(=O)n2ccc(/C=C/C(=O)NO)c2)cc1` [Compound 17, (E)-3-[1-(4-Aminomethyl-benzenesulfonyl)-1H-pyrrol-3-yl]-N-hydroxy-acrylamide]: the melting point (as a rule, the temperature, or range, at which the solid turns liquid) was 227 to 228.6 °C.

`O=C(/C=C/c1ccn(S(=O)(=O)c2ccc(-c3ccncc3)cc2)c1)NO` [Compound 18, (E)-N-Hydroxy-3-[1-(4-pyridin-4-yl-benzenesulfonyl)-1H-pyrrol-3-yl]-acrylamide]: the melting point was in the range of 219.3 to 221.4 °C.

Regarding `O=C(/C=C/c1ccn(S(=O)(=O)c2ccc(-c3cn[nH]c3)cc2)c1)NO` [Compound 19, (E)-N-Hydroxy-3-{1-[4-(1H-pyrazol-4-yl)-benzenesulfonyl]-1H-pyrrol-3-yl}-acrylamide], the melting point was 203.8 to 211.9 °C.

Compound `Nc1ccccc1NC(=O)/C=C/c1ccn(S(=O)(=O)c2ccc(-c3ccncc3)cc2)c1` [Compound 20, (E)-N-(2-Amino-phenyl)-3-[1-(4-pyridin-4-yl-benzenesulfonyl)-1H-pyrrol-3-yl]-acrylamide] had a melting point of 244.2 to 246.5 °C.

`Nc1ccccc1NC(=O)/C=C/c1ccn(S(=O)(=O)c2ccc(-c3cccnc3)cc2)c1` [Compound 21, (E)-N-(2-Amino-phenyl)-3-[1-(4-pyridin-3-yl-benzenesulfonyl)-1H-pyrrol-3-yl]-acrylamide] returned a melting point of 199.7 to 202.3 °C.

As to `Nc1ccccc1NC(=O)/C=C/c1ccn(S(=O)(=O)c2ccc(-c3cn[nH]c3)cc2)c1` [Compound 22, (E)-N-(2-Amino-phenyl)-3-{1-[4-(1H-pyrazol-4-yl)-benzenesulfonyl]-1H-pyrrol-3-yl}-acrylamide], the melting point lay in the range of 232.3 to 240.9 °C.

The compound `O=C(/C=C/c1ccn(S(=O)(=O)c2cccc(-c3ccccc3)c2)c1)NO` [Compound 23, (E)-3-[1-(Biphenyl-3-sulfonyl)-1H-pyrrol-3-yl]-N-hydroxy-acrylamide] had a melting point of 114 to 159.4 °C.

For the compound `O=C(/C=C/c1ccn(S(=O)(=O)c2ccc(-c3ccccn3)s2)c1)NO` [Compound 24, (E)-N-Hydroxy-3-[1-(5-pyridin-2-yl-thiophene-2-sulfonyl)-1H-pyrrol-3-yl]-acrylamide], in the series with A549 cell line, the “Effect of combination with Trail” value is “synergism is highly likely”. Besides, the results for the IC50 in series [2] and in series [3] were 450 to 15000 nM and 150 to 5100 nM, respectively.

In turn, `O=C(/C=C/c1ccn(S(=O)(=O)c2ccc(-n3cccn3)cc2)c1)NO` [Compound 25, (E)-N-Hydroxy-3-[1-(4-pyrazol-1-yl-benzenesulfonyl)-1H-pyrrol-3-yl]-acrylamide] displayed a melting point of 160.7 to 166.6 °C.

As to `Nc1ccccc1NC(=O)/C=C/c1ccn(S(=O)(=O)c2ccc(-c3ccccn3)s2)c1` [Compound 26, (E)-N-(2-Amino-phenyl)-3-[1-(5-pyridin-2-yl-thiophene-2-sulfonyl)-1H-pyrrol-3-yl]-acrylamide], the melting point lay in the range of 171.3 to 174.7 °C.

For `O=C(/C=C/c1ccn(S(=O)(=O)c2ccc(CN3CCOCC3)cc2)c1)NO` [Compound 27, (E)-N-Hydroxy-3-[1-(4-morpholin-4-ylmethyl-benzenesulfonyl)-1H-pyrrol-3-yl]-acrylamide], the melting point lay within 168 to 170 °C.

For the origin of these results see patent US8232297B2, “Sulphonylpyrroles as inhibitors of HDACs novel sulphonylpyrroles” (4SC AG, priority 2005, dated 2012).
